Experimental data taken from patent US20250257034A1, “INDOLE DERIVATIVES AS SEROTONERGIC AGENTS USEFUL FOR THE TREATMENT OF DISORDERS RELATED THERETO” (priority 2023, published 2025).
Where two headings read alike, the source gives them in different places.

Assays:
[1] = Pharmacokinetic studies in rat (i.v.); assay type: in vivo; details: male, Sprague-Dawley, rat, plasma, dose 1.37 mg/kg (I-71, I-128), 1.33 mg/kg ((S) I-67); for concentration at 0.25 h / concentration at 1 h / concentration at 4 h: intravenous, rat i.v.; for AUC(0-t) / half-life: iv, rat plasma, i.v.; for half-life: estimated from 2 points only
Procedure: Animals: Male Sprague-Dawley rats (˜225-350 g) from Charles River Labs were acclimatized for a minimum of 5 days prior to start of study procedures. Body weights were recorded on the day of dosing.
Any abnormalities were documented including presence/absence of wet dog shakes/back muscle contractions (WDS/BMC).
Dosing: Formulations were administered intravenously (i.v.) via the tail vein using a 25 G needle connected to a 1 cc syringe.
The Compounds of Formula (I) were freshly prepared at the appropriate concentrations in 5% Tween-80 in saline.
Blood collection time (h): 0.25, 1 and 4.
Volume/time-point: ˜0.25 mL […] (saphenous vein).
Instrumentation: AB Sciex QTRAP 4000 or 6500 MS/MS system equipped with an LC system with a binary pump, a solvent degasser, a thermostatted column compartment and a multiplate autosampler.
Analysis software: Phoenix® WinNonlin® 8.3 (Pharsight, Certara, Mountainview, CA).
Analysis methods: non-compartmental analysis, linear up/log down trapezoidal rule.
PK parameters: t1/2 and AUC0-tlast were be estimated.
Volume/time-point: ˜0.25 mL (saphenous vein).
PK parameters: t1/2 and AUC0-tlast were estimated.

[2] = Human liver microsomes stability; assay type: in vitro ADME; details: human liver microsomes
Procedure: (§1) The objective of this study was to estimate in vitro metabolic stability of exemplary compounds of Formula (I) or a pharmaceutically acceptable salt, solvate, and/or prodrug thereof in pooled human, male rat, and male mouse liver microsomes. The concentrations of compounds in reaction systems were evaluated by LC-MS/MS for estimating the stability in pooled human, male rat, and male mouse liver microsomes. The in vitro intrinsic clearances of test compounds were determined as well.
(§2) A master solution in the “Incubation Plate” containing phosphate buffer, ultra-pure H2O, MgCl2 solution and liver microsomes was made according to Table 33. The mixture was pre-warmed at 37° C. water bath for 5 minutes.
(§3) 40 μL of 10 mM nicotinamide adenine dinucleotide phosphate (NADPH) solution was added to each well. The final concentration of NADPH was 1 mM. The negative control samples were prepared by replacing NADPH with 40 μL of ultra-pure H2O. Samples were prepared in duplicate. Negative controls were prepared in singlet.
(§4) The reaction was started with the addition of 4 μL of 200 μM exemplary test compounds of the disclosure or control compounds to each master solution to get the final concentration of 2 μM. This study was performed in duplicate.
(§5) Aliquots of 50 μL were taken from the reaction solution at 0, 15, 30, 45, and 60 minutes. The reaction solutions were stopped by the addition of 4 volumes of cold methanol with IS (100 nM alprazolam, 200 nM imipramine, 200 nM labet alol and 2 μM ketoprofen). Samples were centrifuged at 3,220 g for 40 minutes. Aliquot of 90 μL of the supernatant was mixed with 90 μL of ultra-pure H2O and then was used for LC-MS/MS analysis.
(§6) LC/MS analysis was performed for all samples from this study using a Shimadzu liquid chromatograph separation system equipped with degasser DGU-20A5R; solvent delivery unit LC-30AD; system controller SIL-30AC; column oven CTO-30A; CTC Analytics HTC PAL System. Mass spectrometric analysis was performed using a Triple Quad™ 5500 instrument.
(§7) All calculations were carried out using Microsoft Excel. Peak area ratios of test compound to internal standard (listed in the below table) were determined from extracted ion chromatograms.
(§8) All calculations were carried out using Microsoft Excel. Peak areas were determined from extracted ion chromatograms. The slope value, k, was determined by linear regression of the natural logarithm of the remaining percentage of the parent drug vs. incubation time curve.
(§9) The in vitro half-life (in vitro t1/2) was determined from the slope value:
(§10) Conversion of the in vitro t1/2(min) into the in vitro intrinsic clearance (in vitro CLint, in μL/min/mg proteins) was done using the following equation (mean of duplicate determinations): […]
(§11) A master solution in the “Incubation Plate” containing phosphate buffer, ultra-pure H2O, MgCl2 solution and liver microsomes was made according to Table 63. The mixture was pre-warmed at 37° C. water bath for 5 minutes.
(§12) 40 μL of 10 mM NADPH solution was added to each well. The final concentration of NADPH was 1 mM. The negative control samples were prepared by replacing NADPH with 40 μL of ultra-pure H2O. Samples were prepared in duplicate. Negative controls were prepared in singlet.
(§13) Conversion of the in vitro t1/2(min) into the in vitro intrinsic clearance (in vitro C Lt, in μL/min/mg proteins) was done using the following equation (mean of duplicate determinations): […]

[3] = Rat liver microsomes stability; assay type: in vitro ADME; details: rat liver microsomes
Procedure: as §1, §2, §3, §4, §5, §6, §7, §8, §9, §10, §11, §12, §13

[4] = Mouse liver microsomes stability; assay type: in vitro ADME; details: mouse liver microsomes
Procedure: as §1, §2, §3, §4, §5, §6, §7, §8, §9, §10, §11, §12, §13

[5] = first individual rat (R01/R04), read-out: Plasma concentration
[6] = mean of 3 rats, read-out: Plasma concentration, Mean ± SD
[7] = second individual rat (R02/R05), read-out: Plasma concentration
[8] = third individual rat (R03/R06), read-out: Plasma concentration
[9] = male, pooled liver microsomes, 2 μM compound, 0.5 mg/mL
[10] = male, pooled liver microsomes, read-out: Scaled-up CLint

In the case of `COc1ccc2[nH]cc(CCN(C)CCOC(F)F)c2c1` [Compound I-71, 2-(Difluoromethoxy)-N-(2-(5-methoxy-1H-indol-3-yl)ethyl)-N-methylethan-1-amine], the concentration at 0.25 h [1, 5] is reported as 292 ng/mL, the concentration at 0.25 h [1, 6] is reported as 286 ± 6.03 ng/mL and the concentration at 0.25 h [1, 7] is reported as 280 ng/mL. For the same compound, the concentration at 0.25 h [1, 8] was 287 ng/mL, the concentration at 1 h [1, 5] was 61.5 ng/mL and the concentration at 1 h [1, 6] was 82.5 ± 19.1 ng/mL. For the same compound, the concentration at 1 h [1, 7] was 87.2 ng/mL, the concentration at 1 h [1, 8] was 98.9 ng/mL and the concentration at 4 h [1, 5] was 1.27 ng/mL. It also gave a concentration at 4 h [1, 6] of 1.82 ± 0.582 ng/mL, a concentration at 4 h [1, 7] of 1.77 ng/mL and a concentration at 4 h [1, 8] of 2.43 ng/mL. For the same compound, the AUC(0-t) ([1]; first individual rat (R01/R04), read-out: AUC0-tlast) was 253 ng·h/mL, the half-life ([1]; first individual rat (R01/R04), read-out: Apparent t1/2 (converted)) was 29.6 min and the AUC(0-t) ([1]; mean of 3 rats, read-out: AUC0-tlast, Mean ± SD) was 275 ± 21.7 ng·h/mL. It also gave a half-life ([1]; mean of 3 rats, read-out: Apparent t1/2, Mean ± SD (converted)) of 31.2 ± 1.69 min, an AUC(0-t) ([1]; second individual rat (R02/R05), read-out: AUC0-tlast) of 275 ng·h/mL and a half-life ([1]; second individual rat (R02/R05), read-out: Apparent t1/2 (converted)) of 31.1 min. For the same compound, the AUC(0-t) ([1]; third individual rat (R03/R06), read-out: AUC0-tlast) was 297 ng·h/mL, the half-life ([1]; third individual rat (R03/R06), read-out: Apparent t1/2 (converted)) was 32.9 min and the “Predicted hepatic CL” value [2] was 17.80 mL/min/kg. The half-life at 2 μM ([2]; 2 μM compound, 0.5 mg/mL) was 13.7 min, the microsomal CLint at 2 μM ([2]; 2 μM compound, 0.5 mg/mL, read-out: CLint (μL/min/mg protein)) was 101 µL/min/mg and the “Remaining Percentage (%)” value ([2]; With Cofactors, 0 min) was 100.00%. The “Remaining Percentage (%)” value ([2]; With Cofactors, 30 min) was 26.55%, the “Remaining Percentage (%)” value ([2]; With Cofactors, 60 min) was 4.78% and the “Remaining Percentage (%)” value ([2]; Without Cofactors, 0 min) was 100.00%. The “Remaining Percentage (%)” value ([2]; Without Cofactors, 30 min) was 98.77%, the “Remaining Percentage (%)” value ([2]; Without Cofactors, 60 min) was 104.91% and the CLint scaled at 2 μM ([2]; read-out: Scaled-up CLint) was 127 mL/min/kg. For the same compound, the half-life at 2 μM [3, 9] was 9.7 min, the CLint scaled at 2 μM [3, 10] was 256 mL/min/kg and the microsomal CLint at 2 μM ([3]; male, rat, pooled liver microsomes, 2 μM compound, 0.5 mg/mL, read-out: CLint (μL/min/mg protein)) was 143 µL/min/mg. For the same compound, the “Predicted hepatic CL” value [3] was 45.41 mL/min/kg, the “Remaining Percentage (%)” value ([3]; With Cofactors, 0 min) was 100.00% and the “Remaining Percentage (%)” value ([3]; With Cofactors, 30 min) was 10.63%. The “Remaining Percentage (%)” value ([3]; With Cofactors, 60 min) was 1.37%, the “Remaining Percentage (%)” value ([3]; Without Cofactors, 0 min) was 100.00% and the “Remaining Percentage (%)” value ([3]; Without Cofactors, 30 min) was 96.79%. The “Remaining Percentage (%)” value ([3]; Without Cofactors, 60 min) was 100.64%, the microsomal CLint at 2 μM ([4]; male, mouse, pooled liver microsomes, 2 μM compound, 0.5 mg/mL, read-out: CLint (μL/min/mg protein)) was 178 µL/min/mg and the half-life at 2 μM [4, 9] was 7.8 min. For the same compound, the CLint scaled at 2 μM [4, 10] was 777 mL/min/kg, the “Predicted hepatic CL” value [4] was 80.66 mL/min/kg and the “Remaining Percentage (%)” value ([4]; With Cofactors, 0 min) was 100.00%. The “Remaining Percentage (%)” value ([4]; With Cofactors, 30 min) was 6.96%, the “Remaining Percentage (%)” value ([4]; With Cofactors, 60 min) was 0.66% and the “Remaining Percentage (%)” value ([4]; Without Cofactors, 0 min) was 100.00%. For the same compound, the “Remaining Percentage (%)” value ([4]; Without Cofactors, 30 min) was 105.81% and the “Remaining Percentage (%)” value ([4]; Without Cofactors, 60 min) was 109.68%.
